Series [1] deals with T1, Adenosine receptor A2b (Homo sapiens) (UniProt P29275).
T1 sequence (whole entry): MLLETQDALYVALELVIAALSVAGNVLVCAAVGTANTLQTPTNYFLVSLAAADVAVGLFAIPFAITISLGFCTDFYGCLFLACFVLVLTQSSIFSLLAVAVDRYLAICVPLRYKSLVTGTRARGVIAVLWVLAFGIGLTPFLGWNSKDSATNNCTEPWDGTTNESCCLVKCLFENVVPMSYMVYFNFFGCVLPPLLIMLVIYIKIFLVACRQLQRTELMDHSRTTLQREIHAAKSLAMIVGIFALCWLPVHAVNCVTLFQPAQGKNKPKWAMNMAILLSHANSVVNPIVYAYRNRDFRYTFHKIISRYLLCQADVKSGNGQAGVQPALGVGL
The series is described as follows: Antagonist activity against N-terminal pRK5/SNAP-tagged human A2BAR transfected in HEK293T cells assessed as reduction in NECA-induced change in cellular impedence by measuring AUC measured for 45 mins. Format: functional, cell-based. The note with it: filed as antagonist.

For series [2], the target named is T2, Cytochrome P450 3A4 (Homo sapiens, UniProt P08684). Kind of series: Inhibition of CYP3A4 (unknown origin) using 7-BFC as substrate preincubated for 5 mins followed by substrate addition by fluorescence based assay. Format: ADME.
The nature of series [3]: Immunostimulatory effect on anti-CD3/CD28 antibodies/IL-2-activated human PBMC cells assessed as reversal of ADO-mediated inhibition of cell proliferation at 15 uM incubated for 3 days by CFSE dye based flow cytometry (reference value: 3.55 %). The settings on record: time 3 day. Set-up: scale not given: the % may be the effect or the level left. Format: functional.
Series [4] concerns the target Adenosine receptor A2a (Homo sapiens) (UniProt P29274). The series is described as follows: Displacement of [3H]DPCPX from human A2AAR expressed in human HeLa cell membrane at 1 uM incubated for 30 mins by competitive binding assay relative to control. It counts as cell membranes.
Series [5] deals with T3, Adenosine receptor A3 (Homo sapiens) (UniProt P0DMS8).
T3 sequence (whole entry): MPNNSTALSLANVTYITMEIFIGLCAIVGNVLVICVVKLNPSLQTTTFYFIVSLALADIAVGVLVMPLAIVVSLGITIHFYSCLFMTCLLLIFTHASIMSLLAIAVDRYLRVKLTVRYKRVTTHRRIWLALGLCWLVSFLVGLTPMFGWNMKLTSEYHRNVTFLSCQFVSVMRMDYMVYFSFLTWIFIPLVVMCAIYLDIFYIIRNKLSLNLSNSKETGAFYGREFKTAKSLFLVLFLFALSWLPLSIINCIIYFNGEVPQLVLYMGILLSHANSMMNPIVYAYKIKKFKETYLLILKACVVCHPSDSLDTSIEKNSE
Kind of series: Displacement of [3H]NECA from human A3AR expressed in human HeLa cell membrane at 1 uM incubated for 180 mins by competitive binding assay relative to control. It counts as cell membranes.

A short description of series [6]: Solubility of compound in 1:99 DMSO/PBS incubated for 4 hrs. It counts as physicochemical.
For series [7], the target named is T4, Adenosine receptor A1 (Homo sapiens) (UniProt P30542).
T4 sequence (whole entry): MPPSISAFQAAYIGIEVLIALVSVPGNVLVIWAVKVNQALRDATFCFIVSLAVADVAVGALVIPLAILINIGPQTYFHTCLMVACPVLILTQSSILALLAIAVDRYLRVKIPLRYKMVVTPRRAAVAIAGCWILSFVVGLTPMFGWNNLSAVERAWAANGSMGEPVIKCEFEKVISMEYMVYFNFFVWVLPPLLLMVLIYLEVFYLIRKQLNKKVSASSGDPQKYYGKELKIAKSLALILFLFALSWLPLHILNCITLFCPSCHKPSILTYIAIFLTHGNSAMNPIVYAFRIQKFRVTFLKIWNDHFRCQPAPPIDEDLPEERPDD
Kind of series: Displacement of [3H]DPCPX from human A1AR expressed in CHO cell membrane at 1 uM incubated for 60 mins by competitive binding assay relative to control. Format: cell membranes.

The target of series [8] is T2, Cytochrome P450 3A4.
Description: Inhibition of CYP3A4 (unknown origin) using DBF as substrate preincubated for 5 mins followed by substrate addition by fluorescence based assay

Converted amounts (≈) assume the structure as drawn. The source made the active and inactive calls. No cut-off for these calls is given here. Where only a bound is given, the exact number is not on record here.

Chain of Adenosine receptor A2a (Homo sapiens) (P29274 whole entry): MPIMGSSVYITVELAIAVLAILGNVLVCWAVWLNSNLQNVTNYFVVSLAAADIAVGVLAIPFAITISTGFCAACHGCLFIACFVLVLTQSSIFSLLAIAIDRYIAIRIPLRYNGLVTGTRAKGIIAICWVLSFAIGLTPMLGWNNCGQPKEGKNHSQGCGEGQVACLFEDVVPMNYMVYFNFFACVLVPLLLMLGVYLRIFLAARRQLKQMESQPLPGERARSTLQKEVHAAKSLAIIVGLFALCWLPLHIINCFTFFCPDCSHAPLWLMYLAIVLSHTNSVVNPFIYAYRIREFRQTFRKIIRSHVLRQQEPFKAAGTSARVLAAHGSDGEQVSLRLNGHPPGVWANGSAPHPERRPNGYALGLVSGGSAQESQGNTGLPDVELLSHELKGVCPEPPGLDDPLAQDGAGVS
T2 sequence (P08684 whole entry): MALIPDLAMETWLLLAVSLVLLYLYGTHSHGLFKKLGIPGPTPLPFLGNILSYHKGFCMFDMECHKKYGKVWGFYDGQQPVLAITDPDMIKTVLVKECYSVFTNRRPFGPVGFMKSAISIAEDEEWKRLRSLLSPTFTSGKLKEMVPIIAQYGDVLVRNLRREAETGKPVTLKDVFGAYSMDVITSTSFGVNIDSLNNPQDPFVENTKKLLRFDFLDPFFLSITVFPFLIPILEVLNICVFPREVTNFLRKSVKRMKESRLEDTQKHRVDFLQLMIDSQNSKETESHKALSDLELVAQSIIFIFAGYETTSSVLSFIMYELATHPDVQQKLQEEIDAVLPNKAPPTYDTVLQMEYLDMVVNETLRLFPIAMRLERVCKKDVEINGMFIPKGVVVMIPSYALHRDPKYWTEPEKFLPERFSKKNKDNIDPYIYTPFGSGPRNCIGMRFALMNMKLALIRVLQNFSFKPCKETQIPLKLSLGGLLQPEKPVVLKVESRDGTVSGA

In the case of `CC1=C(C(=O)OC(C)C)C(c2ccco2)n2c(nc3cc(Br)ccc32)N1` (racemic), the result in series [1] was Active. The molecule also had an IC50 in series [2] above 10 µM.
As for `CC1=C(C(=O)OC(C)C)C(c2ccco2)n2c(nc3cc(Cl)ccc32)N1` (racemic), in series [1], the result was Active. Further, the IC50 in series [2] is above 10 µM. The Activity in series [3] amounted to 6.64%.
With `CC1=C(C(=O)OC(C)C)C(c2cocn2)n2c(nc3ccccc32)N1` (centres undefined), the Activity in series [4] stood at 19%; in series [5], 16%; in series [7] it was 7%. The solubility (kinetic) at 4 h in series [6] is 39.7 µM (≈ 13.4 µg/mL).
As to `CCCn1c(=O)[nH]c2[nH]c(-c3ccc(S(=O)(=O)C4CCC(c5ccc(Cl)cc5)CC4)cc3)nc2c1=O` (centres undefined), the solubility (kinetic) at 4 h in series [6] worked out at 0.2 µM (≈ 0.105 µg/mL).
In series [4], `CC1=C(C(=O)OC(C)C)C(c2ccoc2)n2c(nc3ccccc32)N1` (centres undefined) came in with an Activity of 23%. This molecule displayed a solubility (kinetic) at 4 h in series [6] of 26.1 µM (≈ 8.81 µg/mL).
For `CCOC(=O)C1=C(C)Nc2nc3ccccc3n2C1c1cocn1` (centres undefined), the values for the Activity in series [5] and in series [7] were 7% and 5%, respectively.
Regarding `CCOC(=O)C1=C(C)Nc2nc3cc(Br)ccc3n2C1c1ccoc1` (racemic), in series [1], the outcome was Active.
`CCOC(=O)C1=C(C)Nc2nc3cc(Br)ccc3n2[C@H]1c1ccoc1` came in with an Activity in series [5] of 10%.
The molecule `CCOC(=O)C1=C(C)Nc2nc3cc(Br)ccc3n2[C@@H]1c1ccoc1` returned an Activity in series [4] of 12%.
Regarding `CC1=C(C(=O)OC(C)C)C(c2ccco2)n2c(nc3cc(F)c(F)cc32)N1` (racemic), the IC50 in series [2] and in series [8] was above 10 µM each time.
Consider `CC1=C(C(=O)OC(C)C)[C@@H](c2ccco2)n2c(nc3cc(Br)ccc32)N1`, for which the Activity in series [4] stood at 14%.
With `CC1=C(C(=O)OC(C)C)C(c2ccco2)n2c(nc3cc(F)ccc32)N1` (racemic), in series [1], the result was Active. The IC50 in series [2] and in series [8] was above 10 µM in each case.
In series [6], `CC1=C(C(=O)OC(C)C)C(c2ccco2)n2c(nc3ccccc32)N1` (centres undefined) had a solubility (kinetic) at 4 h of 25.2 µM (≈ 8.5 µg/mL).

For the origin of these results see ChEMBL document CHEMBL5321195, “Exploring the Effect of Halogenation in a Series of Potent and Selective A2B Adenosine Receptor Antagonists” (J Med Chem, 2023).
